# From ChEMBL document CHEMBL1201862, “PubChem BioAssay data set” (2004)
#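 Interpolation was linear, between the two tested concentrations surrounding the appropriate level; five concentrations were tested over 48 hours in 96-well plates. The concentration for 50% growth inhibition is given as GI50.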 Active and inactive are the calls of the source. Cut-off read from the data, not from the text of the source: active = GI50 up to about 1.1 µM and inactive = higher.
# Columns and labels:
# Assay in all cases: NCI-60 cell line screen, 48 h
# UO-31 = tested on: UO-31
# EKVX = tested on: EKVX
# KM-20L2 = tested on: KM-20L2
# DLD-1 = tested on: DLD-1
# Malme-3M = tested on: Malme-3M
# HCT-15 = tested on: HCT-15
# SNB-75 = tested on: SNB-75
# LXFL 529 = tested on: LXFL 529
# SK-MEL-2 = tested on: SK-MEL-2
# SNB-78 = tested on: SNB-78
# ACHN = tested on: ACHN
# NCI-H226 = tested on: NCI-H226
# M19-MEL = tested on: M19-MEL
# OVCAR-3 = tested on: OVCAR-3
# LOX IMVI = tested on: LOX IMVI
# SR = tested on: SR
# RXF 393 = tested on: RXF 393
# UACC-62 = tested on: UACC-62
# SN12C = tested on: SN12C
# TK-10 = tested on: TK-10
# SK-MEL-5 = tested on: SK-MEL-5
# SF-295 = tested on: SF-295
# A498 = tested on: A498
# MOLT-4 = tested on: MOLT-4
# NCI-H23 = tested on: NCI-H23
# HL-60 = tested on: HL-60
# RPMI-8226 = tested on: RPMI-8226
# HOP-62 = tested on: HOP-62
# OVCAR-5 = tested on: OVCAR-5
# SW-620 = tested on: SW-620
# COLO 205 = tested on: COLO 205
# RXF 631 = tested on: RXF 631
# SF-268 = tested on: SF-268
# NCI-H522 = tested on: NCI-H522
# KM12 = tested on: KM12
# OVCAR-4 = tested on: OVCAR-4
# NCI-H460 = tested on: NCI-H460
# CCRF-CEM = tested on: CCRF-CEM
# HT-29 = tested on: HT-29
# SK-MEL-28 = tested on: SK-MEL-28
# HCC 2998 = tested on: HCC 2998
# DMS-114 = tested on: DMS-114
# SNB-19 = tested on: SNB-19
# UACC-257 = tested on: UACC-257
# K562 = tested on: K562
# HOP-18 = tested on: HOP-18
# CAKI-1 = tested on: CAKI-1
# DMS-273 = tested on: DMS-273
# A549 = tested on: A549
# OVCAR-8 = tested on: OVCAR-8
# SK-OV-3 = tested on: SK-OV-3
# HCT-116 = tested on: HCT-116
# IGROV-1 = tested on: IGROV-1
# HOP-92 = tested on: HOP-92
# 786-0 = tested on: 786-0
# U-251 = tested on: U-251
# M14 = tested on: M14
# SF-539 = tested on: SF-539
compound,measurement,setting,value
CCCCCCCCCCC(C)CCCCCCC(=O)OCC(COP(=O)([O-])OCC[N+](C)(C)C)OC(=O)CCCCCCC(C)CCCCCCCCCC (stereo unspecified),GI50,UO-31,> 100 µM (inactive)
same,GI50,EKVX,> 100 µM (inactive)
same,GI50,KM-20L2,> 100 µM (inactive)
same,GI50,DLD-1,> 100 µM (inactive)
same,GI50,Malme-3M,> 100 µM (inactive)
same,GI50,HCT-15,> 100 µM
same,GI50,SNB-75,> 100 µM (inactive)
same,GI50,LXFL 529,> 100 µM (inactive)
same,GI50,SK-MEL-2,> 100 µM (inactive)
same,GI50,SNB-78,> 100 µM (inactive)
same,GI50,ACHN,> 100 µM (inactive)
same,GI50,NCI-H226,> 100 µM (inactive)
same,GI50,M19-MEL,> 100 µM (inactive)
same,GI50,OVCAR-3,> 100 µM (inactive)
same,GI50,LOX IMVI,> 100 µM (inactive)
same,GI50,SR,> 100 µM (inactive)
same,GI50,RXF 393,> 100 µM (inactive)
same,GI50,UACC-62,> 100 µM (inactive)
same,GI50,SN12C,> 100 µM (inactive)
same,GI50,TK-10,> 100 µM (inactive)
same,GI50,SK-MEL-5,> 100 µM (inactive)
same,GI50,SF-295,> 100 µM (inactive)
same,GI50,A498,> 100 µM (inactive)
same,GI50,MOLT-4,> 100 µM (inactive)
same,GI50,NCI-H23,> 100 µM (inactive)
same,GI50,HL-60,> 100 µM (inactive)
same,GI50,RPMI-8226,> 100 µM (inactive)
same,GI50,HOP-62,> 100 µM (inactive)
same,GI50,OVCAR-5,> 100 µM (inactive)
same,GI50,SW-620,> 100 µM (inactive)
same,GI50,COLO 205,> 100 µM (inactive)
same,GI50,RXF 631,> 100 µM (inactive)
same,GI50,SF-268,> 100 µM (inactive)
same,GI50,NCI-H522,> 100 µM (inactive)
same,GI50,KM12,> 100 µM (inactive)
same,GI50,OVCAR-4,> 100 µM (inactive)
same,GI50,NCI-H460,> 100 µM (inactive)
same,GI50,CCRF-CEM,> 100 µM (inactive)
same,GI50,HT-29,> 100 µM (inactive)
same,GI50,SK-MEL-28,> 100 µM (inactive)
same,GI50,HCC 2998,> 100 µM (inactive)
same,GI50,DMS-114,> 100 µM (inactive)
same,GI50,SNB-19,> 100 µM (inactive)
same,GI50,UACC-257,> 100 µM (inactive)
same,GI50,K562,> 100 µM (inactive)
same,GI50,HOP-18,> 100 µM (inactive)
same,GI50,CAKI-1,> 100 µM (inactive)
same,GI50,DMS-273,> 100 µM (inactive)
same,GI50,A549,> 100 µM (inactive)
same,GI50,OVCAR-8,> 100 µM (inactive)
same,GI50,SK-OV-3,> 100 µM (inactive)
same,GI50,HCT-116,> 100 µM (inactive)
same,GI50,IGROV-1,> 100 µM (inactive)
same,GI50,HOP-92,> 100 µM (inactive)
same,GI50,786-0,> 100 µM (inactive)
same,GI50,U-251,> 100 µM (inactive)
same,GI50,M14,> 100 µM (inactive)
Cc1cccc(N2C(=O)/C(=C/c3ccc(N(CCC#N)CCC#N)cc3C)N=C2c2cc([N+](=O)[O-])ccc2Cl)c1,GI50,UO-31,> 100 µM (inactive)
same,GI50,EKVX,68.1 µM (inactive)
same,GI50,DLD-1,> 100 µM (inactive)
same,GI50,Malme-3M,> 100 µM (inactive)
same,GI50,HCT-15,> 100 µM
same,GI50,SNB-75,> 100 µM (inactive)
same,GI50,LXFL 529,> 100 µM (inactive)
same,GI50,SK-MEL-2,> 100 µM (inactive)
same,GI50,ACHN,> 100 µM (inactive)
same,GI50,NCI-H226,> 100 µM (inactive)
same,GI50,M19-MEL,> 100 µM (inactive)
same,GI50,OVCAR-3,> 100 µM (inactive)
same,GI50,SR,> 100 µM (inactive)
same,GI50,UACC-62,> 100 µM (inactive)
same,GI50,SN12C,> 100 µM (inactive)
same,GI50,TK-10,> 100 µM (inactive)
same,GI50,SK-MEL-5,> 100 µM (inactive)
same,GI50,SF-295,> 100 µM (inactive)
same,GI50,A498,> 100 µM (inactive)
same,GI50,MOLT-4,46.5 µM (inactive)
same,GI50,NCI-H23,> 100 µM (inactive)
same,GI50,HL-60,74 µM (inactive)
same,GI50,RPMI-8226,> 100 µM (inactive)
same,GI50,HOP-62,> 100 µM (inactive)
same,GI50,OVCAR-5,> 100 µM (inactive)
same,GI50,SW-620,> 100 µM (inactive)
same,GI50,COLO 205,47.3 µM (inactive)
same,GI50,RXF 631,> 100 µM (inactive)
same,GI50,SF-268,> 100 µM (inactive)
same,GI50,NCI-H522,> 100 µM (inactive)
same,GI50,KM12,> 100 µM (inactive)
same,GI50,OVCAR-4,> 100 µM (inactive)
same,GI50,NCI-H460,> 100 µM (inactive)
same,GI50,CCRF-CEM,41.9 µM (inactive)
same,GI50,HT-29,45.5 µM (inactive)
same,GI50,SK-MEL-28,> 100 µM (inactive)
same,GI50,HCC 2998,> 100 µM (inactive)
same,GI50,DMS-114,88.9 µM (inactive)
same,GI50,SF-539,> 100 µM (inactive)
same,GI50,SNB-19,> 100 µM (inactive)
same,GI50,UACC-257,> 100 µM (inactive)
same,GI50,K562,86.1 µM (inactive)
same,GI50,HOP-18,> 100 µM (inactive)
same,GI50,CAKI-1,8.18 µM (inactive)
same,GI50,DMS-273,> 100 µM (inactive)
same,GI50,A549,> 100 µM (inactive)
same,GI50,OVCAR-8,> 100 µM (inactive)
same,GI50,SK-OV-3,> 100 µM (inactive)
same,GI50,HCT-116,85.7 µM (inactive)
same,GI50,IGROV-1,> 100 µM (inactive)
same,GI50,HOP-92,> 100 µM (inactive)
same,GI50,786-0,> 100 µM (inactive)
same,GI50,U-251,> 100 µM (inactive)
same,GI50,M14,> 100 µM (inactive)
